How the values were obtained:
Test in all cases: Test G preemergence/postemergence greenhouse plant response rating 0 to 100
purple nutsedge = type: in vivo, Cyperus rotundus; details: Rate 125 g/ha, 0 to 100 scale
Summary of the method: (§1)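 Pre- and postemergence treatments used compound in non-phytotoxic solvent on potted greenhouse plants grown from seed, rhizome or plant part. Postemergence plants were at the 2–4 leaf stage; damage was assessed by eye versus untreated pots after 13–21 days.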

smooth crabgrass = type: in vivo, Digitaria ischaemum; details: 0 to 100 scale
Summary of the method: as §1

pitted morningglory = type: in vivo, Ipomoea lacunosa; details: 0 to 100 scale
Summary of the method: as §1

peanut = type: in vivo, Arachis hypoagaea; details: 0 to 100 scale
Summary of the method: as §1

large crabgrass = type: in vivo, Digitaria sanguinalis; details: 0 to 100 scale
Summary of the method: as §1

bermudagrass = type: in vivo, Cynodon dactylon; details: 0 to 100 scale
Summary of the method: as §1

common purslane = type: in vivo, Portulaca oleracea; details: 0 to 100 scale
Summary of the method: as §1

alfalfa = type: in vivo, Medicago ativa; details: 0 to 100 scale
Summary of the method: as §1

yellow nutsedge = type: in vivo, Cyperus esculentus; details: Rate 125 g/ha, 0 to 100 scale
Summary of the method: as §1

guineagrass = type: in vivo, Panicum maximum; details: 0 to 100 scale
Summary of the method: as §1

itchgrass = type: in vivo, Rottboellia exaltata; details: 0 to 100 scale
Summary of the method: as §1

dallisgrass = type: in vivo, Paspalum dilatatum; details: 0 to 100 scale
Summary of the method: as §1

goosegrass = type: in vivo, Eleusine indica; details: 0 to 100 scale
Summary of the method: as §1

common ragweed = type: in vivo, Ambrosia elatior; details: 0 to 100 scale
Summary of the method: as §1

annual bluegrass = type: in vivo, Poa annua; details: 0 to 100 scale
Summary of the method: as §1

johnsongrass = type: in vivo, Sorghum halepense; details: 0 to 100 scale
Summary of the method: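 Greenhouse pots, one species each; non-phytotoxic solvent vehicle. Read-out: visual injury vs untreated, 13–21 DAT. Dash denotes no result.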

sandbur = type: in vivo, Cenchrus echinatus; details: 0 to 100 scale
Summary of the method: as §1

`COC(=O)C(C)Oc1cc(-c2nn3c(c2Cl)CCCC3)c(F)cc1Cl` (stereo not shown) [Compound 28] was tested, and the “Plant response rating, Purple Nutsedge” value (purple nutsedge; POSTEMERGENCE) was 0, the “Plant response rating, Purple Nutsedge” value (purple nutsedge; PREEMERGENCE) was 0 and the “Plant response rating, Smooth Crabgras” value (smooth crabgrass; POSTEMERGENCE, Rate 125 g/ha) was 0. For the same molecule, the “Plant response rating, Smooth Crabgras” value (smooth crabgrass; POSTEMERGENCE, Rate 250 g/ha) was 0, the “Plant response rating, Smooth Crabgras” value (smooth crabgrass; PREEMERGENCE, Rate 125 g/ha) was 0 and the “Plant response rating, Smooth Crabgras” value (smooth crabgrass; PREEMERGENCE, Rate 250 g/ha) was 0. For the same molecule, the “Plant response rating, Pit Morninglory” value (pitted morningglory; POSTEMERGENCE, Rate 125 g/ha) was 0, the “Plant response rating, Pit Morninglory” value (pitted morningglory; POSTEMERGENCE, Rate 250 g/ha) was 0 and the “Plant response rating, Pit Morninglory” value (pitted morningglory; PREEMERGENCE, Rate 125 g/ha) was 0. For the same molecule, the “Plant response rating, Pit Morninglory” value (pitted morningglory; PREEMERGENCE, Rate 250 g/ha) was 0, the “Plant response rating, Peanuts” value (peanut; POSTEMERGENCE, Rate 125 g/ha) was 0 and the “Plant response rating, Peanuts” value (peanut; POSTEMERGENCE, Rate 250 g/ha) was 0. The “Plant response rating, Peanuts” value (peanut; PREEMERGENCE, Rate 125 g/ha) was 0, the “Plant response rating, Peanuts” value (peanut; PREEMERGENCE, Rate 250 g/ha) was 0 and the “Plant response rating, Large Crabgrass” value (large crabgrass; POSTEMERGENCE, Rate 125 g/ha) was 0. For the same molecule, the “Plant response rating, Large Crabgrass” value (large crabgrass; POSTEMERGENCE, Rate 250 g/ha) was 0, the “Plant response rating, Large Crabgrass” value (large crabgrass; PREEMERGENCE, Rate 125 g/ha) was 0 and the “Plant response rating, Large Crabgrass” value (large crabgrass; PREEMERGENCE, Rate 250 g/ha) was 0. The “Plant response rating, Bermudagrass” value (bermudagrass; POSTEMERGENCE, Rate 125 g/ha) was 0, the “Plant response rating, Bermudagrass” value (bermudagrass; POSTEMERGENCE, Rate 250 g/ha) was 0 and the “Plant response rating, Bermudagrass” value (bermudagrass; PREEMERGENCE, Rate 125 g/ha) was 0. For the same molecule, the “Plant response rating, Bermudagrass” value (bermudagrass; PREEMERGENCE, Rate 250 g/ha) was 0, the “Plant response rating, Cmn Purslane” value (common purslane; POSTEMERGENCE, Rate 125 g/ha) was 30 and the “Plant response rating, Cmn Purslane” value (common purslane; POSTEMERGENCE, Rate 250 g/ha) was 60. For the same molecule, the “Plant response rating, Cmn Purslane” value (common purslane; PREEMERGENCE, Rate 125 g/ha) was 0, the “Plant response rating, Cmn Purslane” value (common purslane; PREEMERGENCE, Rate 250 g/ha) was 0 and the “Plant response rating, Alfalfa Var.” value (alfalfa; POSTEMERGENCE, Rate 125 g/ha) was 0. The “Plant response rating, Alfalfa Var.” value (alfalfa; POSTEMERGENCE, Rate 250 g/ha) was 0, the “Plant response rating, Alfalfa Var.” value (alfalfa; PREEMERGENCE, Rate 125 g/ha) was 0 and the “Plant response rating, Alfalfa Var.” value (alfalfa; PREEMERGENCE, Rate 250 g/ha) was 0. For the same molecule, the “Plant response rating, Yellow Nutsedge” value (yellow nutsedge; POSTEMERGENCE) was 0, the “Plant response rating, Yellow Nutsedge” value (yellow nutsedge; PREEMERGENCE) was 0 and the “Plant response rating, Guineagrass” value (guineagrass; POSTEMERGENCE, Rate 125 g/ha) was 0. The “Plant response rating, Guineagrass” value (guineagrass; POSTEMERGENCE, Rate 250 g/ha) was 0, the “Plant response rating, Guineagrass” value (guineagrass; PREEMERGENCE, Rate 125 g/ha) was 0 and the “Plant response rating, Guineagrass” value (guineagrass; PREEMERGENCE, Rate 250 g/ha) was 0. The “Plant response rating, Itchgrass” value (itchgrass; POSTEMERGENCE, Rate 125 g/ha) was 0, the “Plant response rating, Itchgrass” value (itchgrass; POSTEMERGENCE, Rate 250 g/ha) was 0 and the “Plant response rating, Itchgrass” value (itchgrass; PREEMERGENCE, Rate 125 g/ha) was 0. For the same molecule, the “Plant response rating, Itchgrass” value (itchgrass; PREEMERGENCE, Rate 250 g/ha) was 0, the “Plant response rating, Dallisgrass” value (dallisgrass; POSTEMERGENCE, Rate 125 g/ha) was 0 and the “Plant response rating, Dallisgrass” value (dallisgrass; POSTEMERGENCE, Rate 250 g/ha) was 0. The “Plant response rating, Dallisgrass” value (dallisgrass; PREEMERGENCE, Rate 125 g/ha) was 0, the “Plant response rating, Dallisgrass” value (dallisgrass; PREEMERGENCE, Rate 250 g/ha) was 0 and the “Plant response rating, Goosegrass” value (goosegrass; POSTEMERGENCE, Rate 125 g/ha) was 0. The “Plant response rating, Goosegrass” value (goosegrass; POSTEMERGENCE, Rate 250 g/ha) was 0, the “Plant response rating, Goosegrass” value (goosegrass; PREEMERGENCE, Rate 125 g/ha) was 0 and the “Plant response rating, Goosegrass” value (goosegrass; PREEMERGENCE, Rate 250 g/ha) was 0. For the same molecule, the “Plant response rating, Cmn Ragweed” value (common ragweed; POSTEMERGENCE, Rate 125 g/ha) was 100, the “Plant response rating, Cmn Ragweed” value (common ragweed; POSTEMERGENCE, Rate 250 g/ha) was 60 and the “Plant response rating, Cmn Ragweed” value (common ragweed; PREEMERGENCE, Rate 125 g/ha) was 0. The “Plant response rating, Cmn Ragweed” value (common ragweed; PREEMERGENCE, Rate 250 g/ha) was 0, the “Plant response rating, Ann Bluegrass” value (annual bluegrass; POSTEMERGENCE, Rate 125 g/ha) was 0 and the “Plant response rating, Ann Bluegrass” value (annual bluegrass; POSTEMERGENCE, Rate 250 g/ha) was 0. The “Plant response rating, Ann Bluegrass” value (annual bluegrass; PREEMERGENCE, Rate 125 g/ha) was 0, the “Plant response rating, Ann Bluegrass” value (annual bluegrass; PREEMERGENCE, Rate 250 g/ha) was 0 and the “Plant response rating, Johnsongrass” value (johnsongrass; POSTEMERGENCE, Rate 125 g/ha) was 0. For the same molecule, the “Plant response rating, Johnsongrass” value (johnsongrass; POSTEMERGENCE, Rate 250 g/ha) was 0, the “Plant response rating, Johnsongrass” value (johnsongrass; PREEMERGENCE, Rate 125 g/ha) was 0 and the “Plant response rating, Johnsongrass” value (johnsongrass; PREEMERGENCE, Rate 250 g/ha) was 0. The “Plant response rating, S. Sandbur” value (sandbur; POSTEMERGENCE, Rate 125 g/ha) was 0, the “Plant response rating, S. Sandbur” value (sandbur; POSTEMERGENCE, Rate 250 g/ha) was 0 and the “Plant response rating, S. Sandbur” value (sandbur; PREEMERGENCE, Rate 125 g/ha) was 0. For the same molecule, the “Plant response rating, S. Sandbur” value (sandbur; PREEMERGENCE, Rate 250 g/ha) was 0.
